Results from patent US20250325534A1, “MICROBIOCIDAL TETRAHYDROISOQUINOLINE DERIVATIVES” (SYNGENTA CROP PROTECTION AG, priority 2021, published 2025).

Key:
Type in all cases: cell-based
[1] = tested on: Monographella nivalis; assay: Monographella nivalis (Microdochium nivale) / liquid culture (foot rot cereals); settings: 96 h, photometrically 4-5 days after application, read-out: control of Monographella nivalis
Experimental: (§1) Example B10: Monographella nivalis (Microdochium nivale)/Liquid Culture (Foot Rot Cereals) Conidia of the fungus from cryogenic storage are directly mixed into a nutrient broth (potato dextrose broth). After placing a DMSO solution of test compound into a microtiter plate (96-well format), the nutrient broth containing the fungal spores is added. The test plates are incubated at 24° C. and the inhibition of growth is determined photometrically 4-5 days after application.

[2] = tested on: Mycosphaerella arachidis; assay: Mycosphaerella arachidis (Cercospora arachidicola) / liquid culture (early leaf spot); settings: 96 h, photometrically 4-5 days after application, read-out: control of Mycosphaerella arachidis
Experimental: as §1, with “B11: Mycosphaerella arachidis (Cercospora arachidicola)/Liquid” for “B10: Monographella nivalis (Microdochium nivale)/Liquid”, “(Early Leaf Spot)” for “(Foot Rot Cereals)”

[3] = tested on: Mycosphaerella graminicola; assay: Mycosphaerella graminicola (Septoria tritici) / liquid culture (Septoria blotch); settings: Zymoseptoria tritici, 96 h, photometrically 4-5 days after application, read-out: control of Mycosphaerella graminicola
Experimental: as §1, with “B19: Mycosphaerella graminicola (Septoria tritici)/Liquid” for “B10: Monographella nivalis (Microdochium nivale)/Liquid”, “(Septoria Blotch)” for “(Foot Rot Cereals)”

[4] = tested on: Glomerella lagenarium; assay: Glomerella lagenarium (Colletotrichum lagenarium) / liquid culture (anthracnose); settings: Colletotrichum orbiculare, 72 h, photometrically 3-4 days after application, read-out: control of Glomerella lagenarium
Experimental: as §1, with “B5: Glomerella Lagenarium (Colletotrichum Lagenarium)/Liquid” for “B10: Monographella nivalis (Microdochium nivale)/Liquid”, “(Anthracnose)” for “(Foot Rot Cereals)”, “measured” for “determined”, “3-4” for “4-5”

Row | SMILES | inhibition of growth at 20 ppm [1] [%] | inhibition of growth at 20 ppm [2] [%] | inhibition of growth at 20 ppm [3] [%] | inhibition of growth at 20 ppm [4] [%]
1 | CC1c2ccc(OC(F)F)cc2C(C)(c2cnn(C)c2)CN1C(=O)c1cc(-c2ccc(F)cc2F)on1 (stereo not shown) [Compound P-30, [6-(difluoromethoxy)-1,4-dimethyl-4-(1-methylpyrazol-4-yl)-1,3-dihydroisoquinolin-2-yl]-[5-(2,4-difluorophenyl)isoxazol-3-yl]methanone] | ≥ 80 | ≥ 80 | ≥ 80 | –
2 | CC1c2ccc(OCC(F)F)cc2C(C)(c2cnn(C)c2)CN1C(=O)c1cc(-c2ccc(F)cc2F)on1 (stereo not shown) [Compound P-33, [6-(2,2-difluoroethoxy)-1,4-dimethyl-4-(1-methylpyrazol-4-yl)-1,3-dihydroisoquinolin-2-yl]-[5-(2,4-difluorophenyl)isoxazol-3-yl]methanone] | ≥ 80 | ≥ 80 | ≥ 80 | –
3 | COc1ccc2c(c1)C(C)(c1cnn(C)c1)CN(C(=O)c1cc(-c3ccccc3)on1)C2C (stereo not shown) [Compound P-39, [6-methoxy-1,4-dimethyl-4-(1-methylpyrazol-4-yl)-1,3-dihydroisoquinolin-2-yl]-(5-phenylisoxazol-3-yl)methanone] | ≥ 80 | ≥ 80 | ≥ 80 | –
4 | COc1ccc2c(c1)CN(C(=O)c1cc(-c3ccccc3)on1)CC2c1cnn(C)c1 (stereo not shown) [Compound P-50, [7-methoxy-4-(1-methylpyrazol-4-yl)-3,4-dihydro-1H-isoquinolin-2-yl]-(5-phenylisoxazol-3-yl)methanone] | – | ≥ 80 | ≥ 80 | ≥ 80
5 | Cn1cc(C2CN(C(=O)c3cc(-c4ccc(F)cc4F)on3)Cc3ccc(Cl)cc32)cn1 (stereo not shown) [Compound P-58, [6-chloro-4-(1-methylpyrazol-4-yl)-3,4-dihydro-1H-isoquinolin-2-yl]-[5-(2,4-difluorophenyl)isoxazol-3-yl]methanone] | ≥ 80 | – | ≥ 80 | ≥ 80
6 | Cn1cc(C2CN(C(=O)c3ccc(-c4ccc(C(F)(F)F)cc4)o3)Cc3ccccc32)cn1 (stereo not shown) [Compound P-76, [4-(1-methylpyrazol-4-yl)-3,4-dihydro-1H-isoquinolin-2-yl]-[5-[4-(trifluoromethyl)phenyl]-2-furyl]methanone] | – | – | – | ≥ 80
7 | Cn1cc(C2CN(C(=O)c3ccc(-c4ccc(F)cc4)o3)Cc3ccccc32)cn1 (stereo not shown) [Compound P-97, [5-(4-fluorophenyl)-2-furyl]-[4-(1-methylpyrazol-4-yl)-3,4-dihydro-1H-isoquinolin-2-yl]methanone] | – | – | – | ≥ 80
8 | Cn1cc(C2CN(C(=O)c3cc(-c4ccc(F)cc4F)on3)Cc3cc(C(F)(F)F)ccc32)cn1 (stereo not shown) [Compound P-111, [5-(2,4-difluorophenyl)isoxazol-3-yl]-[4-(1-methylpyrazol-4-yl)-7-(trifluoromethyl)-3,4-dihydro-1H-isoquinolin-2-yl]methanone] | ≥ 80 | – | ≥ 80 | ≥ 80
9 | Cc1nn(C)c(C)c1C1CN(C(=O)c2cc(-c3ccc(Cl)cc3F)on2)Cc2ccccc21 (stereo not shown) [Compound P-125, [5-(4-chloro-2-fluoro-phenyl)isoxazol-3-yl]-[4-(1,3,5-trimethylpyrazol-4-yl)-3,4-dihydro-1H-isoquinolin-2-yl]methanone] | ≥ 80 | ≥ 80 | ≥ 80 | –
10 | Cn1cc(C2CN(C(=O)c3cc(-c4ccccc4)on3)Cc3ccc(F)cc32)cn1 (stereo not shown) [Compound P-139, [6-fluoro-4-(1-methylpyrazol-4-yl)-3,4-dihydro-1H-isoquinolin-2-yl]-(5-phenylisoxazol-3-yl)methanone] | – | ≥ 80 | ≥ 80 | ≥ 80
11 | Cn1cc(C2CN(C(=O)c3cc(-c4cc(F)ccc4F)on3)Cc3ccccc32)cn1 (stereo not shown) [Compound P-149, [5-(2,5-difluorophenyl)isoxazol-3-yl]-[4-(1-methylpyrazol-4-yl)-3,4-dihydro-1H-isoquinolin-2-yl]methanone] | ≥ 80 | – | ≥ 80 | ≥ 80
12 | Cc1ccccc1-c1cc(C(=O)N2Cc3ccccc3C(c3cnn(C)c3)C2)no1 (stereo not shown) [Compound P-169, [4-(1-methylpyrazol-4-yl)-3,4-dihydro-1H-isoquinolin-2-yl]-[5-(o-tolyl)isoxazol-3-yl]methanone] | ≥ 80 | – | ≥ 80 | ≥ 80
13 | Cn1cc(C2CN(C(=O)c3cc(-c4ccc(F)c(F)c4)on3)Cc3ccccc32)cn1 (stereo not shown) [Compound P-172, [5-(3,4-difluorophenyl)isoxazol-3-yl]-[4-(1-methylpyrazol-4-yl)-3,4-dihydro-1H-isoquinolin-2-yl]methanone] | – | ≥ 80 | ≥ 80 | –
14 | Cn1cc(C2CN(C(=O)c3cc(C4CCCC4)on3)Cc3ccccc32)cn1 (stereo not shown) [Compound P-176, (5-cyclopentylisoxazol-3-yl)-[4-(1-methylpyrazol-4-yl)-3,4-dihydro-1H-isoquinolin-2-yl]methanone] | – | ≥ 80 | ≥ 80 | –
15 | Cn1cc(C2CN(C(=O)c3cc(-c4cccn4C)on3)Cc3ccccc32)cn1 (stereo not shown) [Compound P-179, [4-(1-methylpyrazol-4-yl)-3,4-dihydro-1H-isoquinolin-2-yl]-[5-(1-methylpyrrol-2-yl)isoxazol-3-yl]methanone] | ≥ 80 | ≥ 80 | ≥ 80 | –
16 | Cc1cccc(-c2cc(C(=O)N3Cc4ccccc4C(c4cnn(C)c4)C3)no2)c1 (stereo not shown) [Compound P-187, [4-(1-methylpyrazol-4-yl)-3,4-dihydro-1H-isoquinolin-2-yl]-[5-(m-tolyl)isoxazol-3-yl]methanone] | – | – | ≥ 80 | ≥ 80
17 | Cn1cc(C2CN(C(=O)c3cc(-c4ccco4)on3)Cc3ccccc32)cn1 (stereo not shown) [Compound P-188, [5-(2-furyl)isoxazol-3-yl]-[4-(1-methylpyrazol-4-yl)-3,4-dihydro-1H-isoquinolin-2-yl]methanone] | – | ≥ 80 | ≥ 80 | ≥ 80
18 | Cn1cc(C2CN(C(=O)c3cc(-c4cccc(Cl)c4)on3)Cc3ccccc32)cn1 (stereo not shown) [Compound P-190, [5-(3-chlorophenyl)-isoxazol-3-yl]-[4-(1-methylpyrazol-4-yl)-3,4-dihydro-1H-isoquinolin-2-yl]methanone] | ≥ 80 | – | ≥ 80 | ≥ 80
19 | CC1c2ccccc2C(c2cnn(C)c2)(C(C)C)CN1C(=O)c1cc(-c2ccc(F)cc2F)on1 (stereo not shown) [Compound P-220, [5-(2,4-difluorophenyl)isoxazol-3-yl]-[4-isopropyl-1-methyl-4-(1-methylpyrazol-4-yl)-1,3-dihydroisoquinolin-2-yl]methanone] | – | ≥ 80 | ≥ 80 | –
20 | CCC1(c2cnn(C)c2)CN(C(=O)c2cc(-c3ccc(F)cc3F)on2)C(C)c2ccccc21 (stereo not shown) [Compound P-222, [5-(2,4-difluorophenyl)isoxazol-3-yl]-[4-ethyl-1-methyl-4-(1-methylpyrazol-4-yl)-1,3-dihydroisoquinolin-2-yl]methanone] | ≥ 80 | ≥ 80 | ≥ 80 | –
21 | Cc1cc(-c2cc(C(=O)N3Cc4ccccc4C(c4cnn(C)c4C)C3)no2)n(C)n1 (stereo not shown) [Compound P-226] | – | – | ≥ 80 | ≥ 80
22 | Cc1c(C2CN(C(=O)c3cc(C4CCCCC4)on3)Cc3ccccc32)cnn1C (stereo not shown) [Compound P-236, (5-cyclohexylisoxazol-3-yl)-[4-(1,5-dimethylpyrazol-4-yl)-3,4-dihydro-1H-isoquinolin-2-yl]methanone] | ≥ 80 | ≥ 80 | ≥ 80 | –
23 | CC(C)[C@@]1(c2cnn(C)c2)CN(C(=O)c2cc(-c3ccc(F)cc3F)on2)[C@@H](C)c2ccccc21 [Compound P-239, [5-(2,4-difluorophenyl)isoxazol-3-yl]-[(1S,4R)-4-isopropyl-1-methyl-4-(1-methylpyrazol-4-yl)-1,3-dihydroisoquinolin-2-yl]methanone] | – | ≥ 80 | ≥ 80 | –
24 | CC(C)[C@]1(c2cnn(C)c2)CN(C(=O)c2cc(-c3ccc(F)cc3F)on2)[C@@H](C)c2ccccc21 [Compound P-241, [5-(2,4-difluorophenyl)isoxazol-3-yl]-[(1S,4S)-4-isopropyl-1-methyl-4-(1-methylpyrazol-4-yl)-1,3-dihydroisoquinolin-2-yl]methanone] | – | ≥ 80 | ≥ 80 | –
